Measured values reported in the kinase profiling compilation of Christmann-Franck et al. (2016).

Tests used:
Settings in all cases: compound 10.0 µM
RPS6KA4 KD2 (human) = RPS6KA4 KD2 (human) (UniProt O75676)
DCLK1 (human) = DCLK1 (human) (UniProt O15075)
PRKG1 (human) = PRKG1 (human) (UniProt Q13976)
NEK4 (human) = NEK4 (human) (UniProt P51957)
PRKAA1 (human) = PRKAA1 (human) (UniProt Q13131)
[1] = system: MET (human), P08581 [Y1235D]
CLK3 (human) = CLK3 (human) (UniProt P49761)
FER (human) = FER (human) (UniProt P16591)
EPHA7 (human) = EPHA7 (human) (UniProt Q15375)
RPS6KA1 KD1 (human) = RPS6KA1 KD1 (human) (UniProt Q15418)
BMX (human) = BMX (human) (UniProt P51813)
OXSR1 (human) = OXSR1 (human) (UniProt O95747)
EPHA3 (human) = EPHA3 (human) (UniProt P29320)
CDK14 (human) = CDK14 (human) (UniProt O94921)
PKN3 (M.tuberculosis) = PKN3 (M.tuberculosis) (UniProt Q6P5Z2)
PTK6 (human) = PTK6 (human) (UniProt Q13882)
[2] = system: KIT (human), P10721 [V559D]
FGFR1 (human) = FGFR1 (human) (UniProt P11362)
FGFR1 (human), sequence (P11362 whole entry, looked up): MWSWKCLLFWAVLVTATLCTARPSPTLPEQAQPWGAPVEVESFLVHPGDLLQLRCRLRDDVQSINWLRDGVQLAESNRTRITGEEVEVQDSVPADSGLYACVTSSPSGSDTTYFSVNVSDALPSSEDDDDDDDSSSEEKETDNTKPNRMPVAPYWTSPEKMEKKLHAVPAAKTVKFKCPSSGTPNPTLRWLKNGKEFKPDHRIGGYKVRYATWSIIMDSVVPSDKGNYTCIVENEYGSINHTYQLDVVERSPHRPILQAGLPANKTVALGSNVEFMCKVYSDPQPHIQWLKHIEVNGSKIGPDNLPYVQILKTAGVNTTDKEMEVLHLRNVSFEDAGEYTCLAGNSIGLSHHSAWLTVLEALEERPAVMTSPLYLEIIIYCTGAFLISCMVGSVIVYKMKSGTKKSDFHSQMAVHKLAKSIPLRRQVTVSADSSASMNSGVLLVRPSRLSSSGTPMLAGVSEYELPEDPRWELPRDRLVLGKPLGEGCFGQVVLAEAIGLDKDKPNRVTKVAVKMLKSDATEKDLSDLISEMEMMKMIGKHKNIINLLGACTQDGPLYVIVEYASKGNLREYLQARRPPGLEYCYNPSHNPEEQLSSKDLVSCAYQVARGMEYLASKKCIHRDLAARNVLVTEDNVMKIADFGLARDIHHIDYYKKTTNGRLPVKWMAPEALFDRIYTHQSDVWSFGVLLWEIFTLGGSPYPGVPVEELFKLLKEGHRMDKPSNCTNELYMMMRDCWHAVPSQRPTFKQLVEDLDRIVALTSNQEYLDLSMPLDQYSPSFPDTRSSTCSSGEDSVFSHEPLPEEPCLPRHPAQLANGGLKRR

STK17A (human) = STK17A (human) (UniProt Q9UEE5)
ZAP70 (human) = ZAP70 (human) (UniProt P43403)
[3] = biological target: TYK2 JH2 pseudokinase (human) (UniProt P29597)
BMPR1B (human) = BMPR1B (human) (UniProt O00238)
LATS1 (human) = LATS1 (human) (UniProt O95835)
MINK1 (human) = MINK1 (human) (UniProt Q8N4C8)
MINK1 (human), sequence (Q8N4C8 whole entry, looked up): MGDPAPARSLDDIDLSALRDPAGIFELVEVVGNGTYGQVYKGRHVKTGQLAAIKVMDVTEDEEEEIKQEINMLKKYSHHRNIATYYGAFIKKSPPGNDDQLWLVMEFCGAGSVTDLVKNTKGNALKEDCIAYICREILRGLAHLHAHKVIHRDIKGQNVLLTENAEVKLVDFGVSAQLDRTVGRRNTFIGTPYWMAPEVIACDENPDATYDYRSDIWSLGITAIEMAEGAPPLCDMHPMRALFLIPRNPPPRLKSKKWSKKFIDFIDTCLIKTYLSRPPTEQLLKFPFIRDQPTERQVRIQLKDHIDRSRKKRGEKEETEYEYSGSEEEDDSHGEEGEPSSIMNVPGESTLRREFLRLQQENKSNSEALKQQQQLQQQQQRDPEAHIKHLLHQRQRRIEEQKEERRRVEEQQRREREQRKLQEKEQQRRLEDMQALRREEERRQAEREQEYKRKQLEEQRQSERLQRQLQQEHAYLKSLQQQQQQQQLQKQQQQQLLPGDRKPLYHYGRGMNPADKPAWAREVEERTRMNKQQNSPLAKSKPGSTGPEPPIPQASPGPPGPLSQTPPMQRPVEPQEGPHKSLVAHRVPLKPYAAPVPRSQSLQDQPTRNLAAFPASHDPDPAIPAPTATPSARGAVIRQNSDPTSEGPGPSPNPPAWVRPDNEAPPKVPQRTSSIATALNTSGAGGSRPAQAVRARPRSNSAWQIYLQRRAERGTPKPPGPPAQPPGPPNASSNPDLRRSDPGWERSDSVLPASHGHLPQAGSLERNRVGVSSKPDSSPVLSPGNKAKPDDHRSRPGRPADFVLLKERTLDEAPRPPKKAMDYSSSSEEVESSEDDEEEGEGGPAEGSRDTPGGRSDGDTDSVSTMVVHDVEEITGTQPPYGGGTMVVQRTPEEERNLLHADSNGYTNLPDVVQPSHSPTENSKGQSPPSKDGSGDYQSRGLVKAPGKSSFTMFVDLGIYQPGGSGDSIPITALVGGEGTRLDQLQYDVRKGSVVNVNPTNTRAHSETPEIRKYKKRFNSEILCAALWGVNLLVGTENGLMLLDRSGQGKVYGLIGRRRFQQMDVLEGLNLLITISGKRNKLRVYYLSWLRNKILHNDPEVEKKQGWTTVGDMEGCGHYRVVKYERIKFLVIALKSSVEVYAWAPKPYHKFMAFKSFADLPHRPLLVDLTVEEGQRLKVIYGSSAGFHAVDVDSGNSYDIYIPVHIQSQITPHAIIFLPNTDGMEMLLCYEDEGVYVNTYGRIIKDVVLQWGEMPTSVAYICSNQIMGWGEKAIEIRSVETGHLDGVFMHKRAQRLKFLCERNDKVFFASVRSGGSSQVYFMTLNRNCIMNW

FGFR3 (human) = FGFR3 (human) (UniProt P22607)
RIPK2 (human) = RIPK2 (human) (UniProt O43353)
CDC42BPA (human) = CDC42BPA (human) (UniProt Q5VT25)
NTRK1 (human) = NTRK1 (human) (UniProt P04629)
NTRK1 (human), sequence (P04629 whole entry, looked up): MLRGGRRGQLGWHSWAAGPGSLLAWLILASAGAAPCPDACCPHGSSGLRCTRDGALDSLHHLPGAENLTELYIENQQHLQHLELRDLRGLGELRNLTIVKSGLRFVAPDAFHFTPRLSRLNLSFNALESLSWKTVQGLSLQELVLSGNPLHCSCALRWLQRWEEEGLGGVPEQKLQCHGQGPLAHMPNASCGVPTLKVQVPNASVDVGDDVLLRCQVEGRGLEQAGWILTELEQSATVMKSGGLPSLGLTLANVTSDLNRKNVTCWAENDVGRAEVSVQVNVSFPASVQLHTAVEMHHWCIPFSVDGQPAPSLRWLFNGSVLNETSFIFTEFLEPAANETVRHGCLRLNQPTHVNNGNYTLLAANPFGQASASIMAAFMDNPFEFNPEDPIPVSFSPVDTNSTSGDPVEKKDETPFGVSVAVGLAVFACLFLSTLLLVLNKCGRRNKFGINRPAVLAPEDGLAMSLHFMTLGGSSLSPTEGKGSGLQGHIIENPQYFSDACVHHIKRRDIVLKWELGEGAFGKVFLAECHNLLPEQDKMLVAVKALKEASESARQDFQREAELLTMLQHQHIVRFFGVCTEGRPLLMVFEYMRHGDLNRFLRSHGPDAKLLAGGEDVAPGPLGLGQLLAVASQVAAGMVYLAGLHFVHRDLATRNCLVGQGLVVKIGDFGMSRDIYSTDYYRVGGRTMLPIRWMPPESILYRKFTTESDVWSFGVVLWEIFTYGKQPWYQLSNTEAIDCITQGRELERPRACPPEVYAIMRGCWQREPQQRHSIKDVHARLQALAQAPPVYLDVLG

TSSK1B (human) = TSSK1B (human) (UniProt Q9BXA7)
PRKD2 (human) = PRKD2 (human) (UniProt Q9BZL6)
MYLK (human) = MYLK (human) (UniProt Q15746)
DMPK (human) = DMPK (human) (UniProt Q09013)
DMPK (human), sequence (Q09013 whole entry, looked up): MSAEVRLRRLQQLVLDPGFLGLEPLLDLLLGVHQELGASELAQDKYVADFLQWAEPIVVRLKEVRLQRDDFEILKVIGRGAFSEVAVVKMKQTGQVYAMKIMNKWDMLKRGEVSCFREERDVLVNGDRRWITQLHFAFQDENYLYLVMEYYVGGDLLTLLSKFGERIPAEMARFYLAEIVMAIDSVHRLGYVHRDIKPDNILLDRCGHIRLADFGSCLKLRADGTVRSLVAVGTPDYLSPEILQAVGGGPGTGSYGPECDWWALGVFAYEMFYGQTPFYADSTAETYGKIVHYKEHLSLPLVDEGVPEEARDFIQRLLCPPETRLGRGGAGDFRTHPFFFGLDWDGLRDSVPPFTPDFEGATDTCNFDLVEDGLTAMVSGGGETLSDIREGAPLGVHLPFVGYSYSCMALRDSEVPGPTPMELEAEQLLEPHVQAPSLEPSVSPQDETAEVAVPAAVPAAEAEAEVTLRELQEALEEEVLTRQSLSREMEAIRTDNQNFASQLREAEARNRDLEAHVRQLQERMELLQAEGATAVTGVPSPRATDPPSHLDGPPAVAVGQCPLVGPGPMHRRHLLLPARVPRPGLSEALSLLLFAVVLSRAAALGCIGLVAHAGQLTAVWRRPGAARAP

RPS6KA4 KD1 (human) = RPS6KA4 KD1 (human) (UniProt O75676)
[4] = system: FLT3 (human), P36888 [R834Q]
TRPM6 (human) = TRPM6 (human) (UniProt Q9BX84)
CDK19 (human) = CDK19 (human) (UniProt Q9BWU1)
IKBKE (human) = IKBKE (human) (UniProt Q14164)
IKBKE (human), sequence (Q14164 whole entry, looked up): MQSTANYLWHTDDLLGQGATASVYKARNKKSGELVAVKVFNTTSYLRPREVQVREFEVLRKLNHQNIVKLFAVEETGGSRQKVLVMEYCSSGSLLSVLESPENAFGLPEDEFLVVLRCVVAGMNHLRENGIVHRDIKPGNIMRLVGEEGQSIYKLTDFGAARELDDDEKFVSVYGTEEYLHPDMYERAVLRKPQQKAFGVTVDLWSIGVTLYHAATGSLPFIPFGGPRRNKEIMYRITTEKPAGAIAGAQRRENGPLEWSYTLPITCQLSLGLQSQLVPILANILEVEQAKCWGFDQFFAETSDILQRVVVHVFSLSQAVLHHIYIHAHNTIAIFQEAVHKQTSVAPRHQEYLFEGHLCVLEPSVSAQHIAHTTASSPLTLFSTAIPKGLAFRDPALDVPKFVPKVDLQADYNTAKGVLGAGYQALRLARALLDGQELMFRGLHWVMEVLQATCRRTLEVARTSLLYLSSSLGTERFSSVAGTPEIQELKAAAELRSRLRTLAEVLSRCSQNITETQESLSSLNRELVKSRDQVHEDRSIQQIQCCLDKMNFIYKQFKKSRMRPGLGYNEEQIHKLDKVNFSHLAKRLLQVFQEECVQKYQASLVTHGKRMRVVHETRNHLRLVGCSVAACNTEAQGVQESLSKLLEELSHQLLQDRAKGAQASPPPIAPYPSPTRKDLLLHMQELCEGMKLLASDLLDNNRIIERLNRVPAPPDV

PIP4K2B (human) = PIP4K2B (human) (UniProt P78356)
RIPK4 (human) = RIPK4 (human) (UniProt P57078)
WEE2 (human) = WEE2 (human) (UniProt P0C1S8)
ADCK4 (human) = ADCK4 (human) (UniProt Q96D53)

PRKG1 (human), sequence (Q13976 whole entry, looked up): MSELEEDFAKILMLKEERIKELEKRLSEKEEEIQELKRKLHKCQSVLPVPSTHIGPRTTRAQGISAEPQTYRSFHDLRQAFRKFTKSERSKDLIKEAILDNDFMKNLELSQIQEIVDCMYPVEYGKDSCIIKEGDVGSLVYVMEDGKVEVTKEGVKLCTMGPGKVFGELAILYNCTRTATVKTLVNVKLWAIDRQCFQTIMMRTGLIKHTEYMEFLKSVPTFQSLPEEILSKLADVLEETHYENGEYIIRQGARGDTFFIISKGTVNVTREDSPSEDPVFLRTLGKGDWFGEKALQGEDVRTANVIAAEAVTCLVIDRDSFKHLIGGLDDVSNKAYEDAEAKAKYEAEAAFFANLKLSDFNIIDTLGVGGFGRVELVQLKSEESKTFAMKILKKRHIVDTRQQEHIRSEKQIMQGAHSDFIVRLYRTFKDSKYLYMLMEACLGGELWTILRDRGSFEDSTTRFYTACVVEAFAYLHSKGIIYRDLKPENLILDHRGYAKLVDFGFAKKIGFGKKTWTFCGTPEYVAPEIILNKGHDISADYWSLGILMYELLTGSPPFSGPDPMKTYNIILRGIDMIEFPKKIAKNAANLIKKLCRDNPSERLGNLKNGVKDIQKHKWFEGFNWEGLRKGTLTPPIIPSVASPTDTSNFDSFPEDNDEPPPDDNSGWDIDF

**Q.** `CNC(=O)c1cc(Oc2ccc(NC(=O)Nc3ccc(Cl)c(C(F)(F)F)c3)cc2)ccn1` was tested. Which per cent of control (RPS6KA4 KD2 (human)) did it give?
**A.** 100%

**Q.** What about the per cent of control (DCLK1 (human)) of the same molecule?
**A.** 62%

**Q.** What about the per cent of control (PRKG1 (human)) of the same molecule?
**A.** 100%

**Q.** And the per cent of control (NEK4 (human))?
**A.** 100%

**Q.** What about the per cent of control (PRKAA1 (human)) of the same molecule?
**A.** 32%

**Q.** What about the per cent of control [1] of the same molecule?
**A.** 60%

**Q.** What about the per cent of control (CLK3 (human)) of the same molecule?
**A.** 84%

**Q.** And the per cent of control (FER (human))?
**A.** 77%

**Q.** And the per cent of control (EPHA7 (human))?
**A.** 7.6%

**Q.** And the per cent of control (RPS6KA1 KD1 (human))?
**A.** 84%

**Q.** And the per cent of control (BMX (human))?
**A.** 94%

**Q.** What about the per cent of control (OXSR1 (human)) of the same molecule?
**A.** 100%

**Q.** What about the per cent of control (EPHA3 (human)) of the same molecule?
**A.** 4%

**Q.** What about the per cent of control (CDK14 (human)) of the same molecule?
**A.** 3.1%

**Q.** What about the residual activity (PKN3 (M.tuberculosis)) of the same molecule?
**A.** 100%

**Q.** What about the per cent of control (PTK6 (human)) of the same molecule?
**A.** 93%

**Q.** What about the per cent of control [2] of the same molecule?
**A.** 0%

**Q.** And the per cent of control (FGFR1 (human))?
**A.** 3.4%

**Q.** What about the per cent of control (STK17A (human)) of the same molecule?
**A.** 58%

**Q.** What about the per cent of control (ZAP70 (human)) of the same molecule?
**A.** 91%

**Q.** And the per cent of control [3]?
**A.** 93%

**Q.** What about the per cent of control (BMPR1B (human)) of the same molecule?
**A.** 93%

**Q.** What about the per cent of control (LATS1 (human)) of the same molecule?
**A.** 79%

**Q.** And the per cent of control (MINK1 (human))?
**A.** 80%

**Q.** What about the per cent of control (FGFR3 (human)) of the same molecule?
**A.** 20%

**Q.** What about the per cent of control (RIPK2 (human)) of the same molecule?
**A.** 5.3%

**Q.** And the per cent of control (CDC42BPA (human))?
**A.** 96%

**Q.** And the per cent of control (NTRK1 (human))?
**A.** 22%

**Q.** What about the per cent of control (TSSK1B (human)) of the same molecule?
**A.** 98%

**Q.** What about the per cent of control (PRKD2 (human)) of the same molecule?
**A.** 100%

**Q.** What about the per cent of control (MYLK (human)) of the same molecule?
**A.** 100%

**Q.** And the per cent of control (DMPK (human))?
**A.** 90%

**Q.** What about the per cent of control (RPS6KA4 KD1 (human)) of the same molecule?
**A.** 81%

**Q.** What about the per cent of control [4] of the same molecule?
**A.** 12%

**Q.** What about the per cent of control (TRPM6 (human)) of the same molecule?
**A.** 100%

**Q.** What about the per cent of control (CDK19 (human)) of the same molecule?
**A.** 0.7%

**Q.** And the per cent of control (IKBKE (human))?
**A.** 100%

**Q.** What about the per cent of control (PIP4K2B (human)) of the same molecule?
**A.** 89%

**Q.** And the per cent of control (RIPK4 (human))?
**A.** 100%

**Q.** And the per cent of control (WEE2 (human))?
**A.** 100%

**Q.** And the per cent of control (ADCK4 (human))?
**A.** 90%

**Q.** How did the per cent of control (RPS6KA4 KD2 (human)) turn out when `CNC(=O)c1cc(Oc2ccc(NC(=O)Nc3ccc(Cl)c(C(F)(F)F)c3)cc2)cc[n+]1[O-]` was run?
**A.** 98%

**Q.** What about the per cent of control (DCLK1 (human)) of the same molecule?
**A.** 53%

**Q.** And the per cent of control (PRKG1 (human))?
**A.** 98%

**Q.** And the per cent of control (NEK4 (human))?
**A.** 93%

**Q.** What about the per cent of control (PRKAA1 (human)) of the same molecule?
**A.** 36%

**Q.** What about the per cent of control [1] of the same molecule?
**A.** 11%

**Q.** What about the per cent of control (CLK3 (human)) of the same molecule?
**A.** 100%

**Q.** And the per cent of control (FER (human))?
**A.** 64%

**Q.** What about the per cent of control (EPHA7 (human)) of the same molecule?
**A.** 33%

**Q.** What about the per cent of control (RPS6KA1 KD1 (human)) of the same molecule?
**A.** 91%

**Q.** And the per cent of control (BMX (human))?
**A.** 67%

**Q.** And the per cent of control (OXSR1 (human))?
**A.** 100%

**Q.** And the per cent of control (EPHA3 (human))?
**A.** 4%

**Q.** And the per cent of control (CDK14 (human))?
**A.** 3.8%

**Q.** What about the residual activity (PKN3 (M.tuberculosis)) of the same molecule?
**A.** 100%

**Q.** What about the per cent of control (PTK6 (human)) of the same molecule?
**A.** 100%

**Q.** And the per cent of control [2]?
**A.** 0%

**Q.** What about the per cent of control (FGFR1 (human)) of the same molecule?
**A.** 9.7%

**Q.** What about the per cent of control (STK17A (human)) of the same molecule?
**A.** 66%

**Q.** And the per cent of control (ZAP70 (human))?
**A.** 77%

**Q.** And the per cent of control [3]?
**A.** 99%

**Q.** What about the per cent of control (BMPR1B (human)) of the same molecule?
**A.** 81%

**Q.** What about the per cent of control (LATS1 (human)) of the same molecule?
**A.** 53%

**Q.** And the per cent of control (MINK1 (human))?
**A.** 2.4%

**Q.** And the per cent of control (FGFR3 (human))?
**A.** 32%

**Q.** What about the per cent of control (RIPK2 (human)) of the same molecule?
**A.** 9.8%

**Q.** What about the per cent of control (CDC42BPA (human)) of the same molecule?
**A.** 90%

**Q.** And the per cent of control (NTRK1 (human))?
**A.** 4%

**Q.** What about the per cent of control (TSSK1B (human)) of the same molecule?
**A.** 100%

**Q.** What about the per cent of control (PRKD2 (human)) of the same molecule?
**A.** 83%

**Q.** What about the per cent of control (MYLK (human)) of the same molecule?
**A.** 100%

**Q.** What about the per cent of control (DMPK (human)) of the same molecule?
**A.** 91%

**Q.** And the per cent of control (RPS6KA4 KD1 (human))?
**A.** 13%

**Q.** And the per cent of control [4]?
**A.** 9%

**Q.** And the per cent of control (TRPM6 (human))?
**A.** 100%

**Q.** What about the per cent of control (CDK19 (human)) of the same molecule?
**A.** 0.35%

**Q.** What about the per cent of control (IKBKE (human)) of the same molecule?
**A.** 100%

**Q.** What about the per cent of control (PIP4K2B (human)) of the same molecule?
**A.** 88%

**Q.** And the per cent of control (RIPK4 (human))?
**A.** 100%

**Q.** And the per cent of control (WEE2 (human))?
**A.** 94%

**Q.** What about the per cent of control (ADCK4 (human)) of the same molecule?
**A.** 81%
